ChEMBL document CHEMBL5614390, “Novel EGFR inhibitors against resistant L858R/T790M/C797S mutant for intervention of non-small cell lung cancer” (Eur J Med Chem, 2024)

Tests used:
PC-9 [1] = test: cells; details: Homo sapiens, PC-9, 72 h
Description: Cytotoxicity against human PC-9 cells expressing EGFR L858R/T790M/C797S mutant assessed as inhibition of cell proliferation incubated for 72 hrs by CCK8 assay

PC-9 [2] = test: cells; details: Homo sapiens, PC-9, 72 h; remark: listed apart in the source
Description: Cytotoxicity against human PC-9 cells expressing EGFR Del19/T790M/C797S mutant assessed as inhibition of cell proliferation incubated for 72 hrs by CCK8 assay

NCI-H1975 = test: cells; details: Homo sapiens, NCI-H1975, 72 h
Description: Cytotoxicity against human NCI-H1975 cells expressing EGFR L858R/T790M mutant assessed as inhibition of cell proliferation incubated for 72 hrs by CCK8 assay

PC-9 [3] = test: cells; details: Homo sapiens, PC-9, 72 h; remark: listed apart in the source
Description: Cytotoxicity against human PC-9 cells expressing EGFR Del19 mutant assessed as inhibition of cell proliferation incubated for 72 hrs by CCK8 assay

HCC827 = test: cells; details: Homo sapiens, HCC827, 72 h
Description: Cytotoxicity against human HCC827 cells expressing EGFR Del19 mutant assessed as inhibition of cell proliferation incubated for 72 hrs by CCK8 assay

A-431 = test: cells; details: Homo sapiens, A-431, 72 h
Description: Cytotoxicity against human A-431 cells assessed as inhibition of cell proliferation incubated for 72 hrs by CCK8 assay

MCF7 = test: cells; details: Homo sapiens, MCF7, 72 h
Description: Cytotoxicity against human MCF7 cells assessed as inhibition of cell proliferation incubated for 72 hrs by CCK8 assay

PC-9 [4] = test: Induction of apoptosis in human PC-9 cells expressing EGFR L858R/T790M/C797S mutant assessed as viable cells at 1 uM incubated for 48 hrs by Annexin V-FITC/PI staining based flow cytometric analysis (reference value: 98.9 %); format: functional
PC-9 [5] = test: Induction of apoptosis in human PC-9 cells expressing EGFR L858R/T790M/C797S mutant assessed as early apoptotic cells at 1 uM incubated for 48 hrs by Annexin V-FITC/PI staining based flow cytometric analysis (reference value: 0.210 %); format: functional
PC-9 [6] = test: Induction of apoptosis in human PC-9 cells expressing EGFR L858R/T790M/C797S mutant assessed as late apoptotic cells at 1 uM incubated for 48 hrs by Annexin V-FITC/PI staining based flow cytometric analysis (reference value: 0.360 %); format: functional
PC-9 [7] = test: Induction of apoptosis in human PC-9 cells expressing EGFR L858R/T790M/C797S mutant assessed as necrotic cells at 1 uM incubated for 48 hrs by Annexin V-FITC/PI staining based flow cytometric analysis (reference value: 0.540 %); format: functional
PC-9 [8] = test: Induction of apoptosis in human PC-9 cells expressing EGFR Del19/T790M/C797S mutant assessed as viable cells at 1 uM incubated for 48 hrs by Annexin V-FITC/PI staining based flow cytometric analysis (reference value: 99.8 %); format: functional
PC-9 [9] = test: Induction of apoptosis in human PC-9 cells expressing EGFR Del19/T790M/C797S mutant assessed as early apoptotic cells at 1 uM incubated for 48 hrs by Annexin V-FITC/PI staining based flow cytometric analysis (reference value: 0.050 %); format: functional
PC-9 [10] = test: Induction of apoptosis in human PC-9 cells expressing EGFR Del19/T790M/C797S mutant assessed as late apoptotic cells at 1 uM incubated for 48 hrs by Annexin V-FITC/PI staining based flow cytometric analysis (reference value: 0.040 %); format: functional
PC-9 [11] = test: Induction of apoptosis in human PC-9 cells expressing EGFR Del19/T790M/C797S mutant assessed as necrotic cells at 1 uM incubated for 48 hrs by Annexin V-FITC/PI staining based flow cytometric analysis (reference value: 0.090 %); format: functional
PC-9 [12] = test: Antitumor activity against human PC-9 cells expressing EGFR L858R/T790M/C797S mutant xenografted in BALB/c nude mouse assessed as tumor growth inhibition at 40 mg/kg, po administered for 18 days relative to control; format: functional; details: time 18 day

Compound | IC50 (PC-9 [1]) [nM] | IC50 (PC-9 [2]) [nM] | IC50 (NCI-H1975) [nM] | IC50 (PC-9 [3]) [nM] | IC50 (HCC827) [nM] | IC50 (A-431) [nM] | IC50 (MCF7) [nM] | Activity (PC-9 [4]) [%] | Activity (PC-9 [5]) [%] | Activity (PC-9 [6]) [%] | Activity (PC-9 [7]) [%] | Activity (PC-9 [8]) [%] | Activity (PC-9 [9]) [%] | Activity (PC-9 [10]) [%] | Activity (PC-9 [11]) [%] | TGI (PC-9 [12]) [%]
C=CC(=O)Nc1cc(Nc2nccc(-c3cn(C)c4ccccc34)n2)c(OC)cc1N(C)CCN(C)C [OSIMERTINIB] |  | 2790 |  | 15 | 16 |  | 3520 | 89 | 4.73 | 5.56 | 0.67 | 85.5 | 3.39 | 6.39 | 4.73 | 30.9
C=CC(=O)Nc1cc(Nc2ncc(F)c(-c3ccc4cc(C(=O)NC)n(C(C)C)c4c3)n2)ccc1N(C)CCN(C)C | 74 | 48 | 44 | 53 | 385 | 1020 | 159 |  |  |  |  |  |  |  |  | 
C=CC(=O)Nc1cc(Nc2ncc(F)c(-c3ccc4cc(C(=O)NC)n(C(C)C)c4c3)n2)c(OC)cc1N1CCN(C(C)C)CC1 | 200 | 2280 | 474 | 1030 | 2180 | 4920 | 3840 |  |  |  |  |  |  |  |  | 

The remaining molecules from weak to strong by IC50 (PC-9 [1]), led by results:

IC50 (PC-9 [1]) [nM] | IC50 (PC-9 [2]) [nM] | IC50 (NCI-H1975) [nM] | IC50 (PC-9 [3]) [nM] | IC50 (HCC827) [nM] | IC50 (A-431) [nM] | IC50 (MCF7) [nM] | Compound | Activity (PC-9 [4]) [%] | Activity (PC-9 [5]) [%] | Activity (PC-9 [6]) [%] | Activity (PC-9 [7]) [%] | Activity (PC-9 [8]) [%] | Activity (PC-9 [9]) [%] | Activity (PC-9 [10]) [%] | Activity (PC-9 [11]) [%] | TGI (PC-9 [12]) [%]
2240 | 1960 | 1180 | 1980 | 1290 | 4130 | 4040 | C=CC(=O)Nc1cc(Nc2ncc(F)c(-c3ccc4cc(C(=O)N(C)C)n(C(C)C)c4c3)n2)ccc1N1CCN(C)CC1 |  |  |  |  |  |  |  |  | 
1110 | 2190 | 1160 | 2090 | 1120 | > 10000 | > 10000 | C=CC(=O)Nc1cc(Nc2ncc(F)c(-c3ccc4cc(C(=O)NC)n(C(C)C)c4c3)n2)c(OC)cc1N1CCN(C)CC1 |  |  |  |  |  |  |  |  | 
380 | 251 | 468 | 122 | 692 | 441 | 875 | C=CC(=O)Nc1cc(Nc2ncc(F)c(-c3ccc4cc(C(=O)N(C)C)n(C(C)C)c4c3)n2)ccc1N1CCN(C(C)C)CC1 |  |  |  |  |  |  |  |  | 
138 | 258 | 150 | 147 | 103 | 46 | 459 | C=CC(=O)Nc1cc(Nc2ncc(F)c(-c3ccc4cc(C(=O)NC)n(C(C)C)c4c3)n2)ccc1N1CCN(C(C)C)CC1 |  |  |  |  |  |  |  |  | 
